According to patent US20120184765A1, “Process for preparing alkyl phosphates” (LANXESS DEUTSCHLAND GMBH, priority 2011, published 2012):

Test: Solubility of tetraalkyl bisphosphates in water (separating funnel test)
Format: physicochemical
Conditions: for water solubility (phase separation observed): 50.0 g tetraalkyl bisphosphate + 50.0 g fully demineralized water, shaken, left to stand 1 hour, residue of aqueous phase / weight of aqueous phase; for solubility / miscibility in water (in words): conclusion from the phase separation experiments; for phase separation in further experiments: different weight ratios of tetraalkyl bisphosphate and water
Experimental: A separating funnel was charged with 50.0 g of tetraalkyl bisphosphate and 50.0 g of fully demineralized water, and was shaken vigorously and then left to stand for 1 hour. If phase separation became apparent, the lower, aqueous phase was carefully separated off and weighed (mw). The aqueous phase was concentrated to constant weight under reduced pressure on a rotary evaporator, and the residue was likewise weighed (mR).

water solubility (phase separation observed) | solubility / miscibility in water (in words) | phase separation in further experiments | Compound
no phase separation | fully water-soluble | no phase separation | CCOP(=O)(OCC)OCCOCCOP(=O)(OCC)OCC [Tetraethyldiethylene glycol bisphosphate, tetraethyldiethylene glycol bisphosphate]
no phase separation | fully water-soluble | no phase separation | tetramethyldiethylene glycol bisphosphate
